# Measurements published in patent publication US12630551B2, “Endocyclic pyrimidinone compounds, and preparation methods, compositions and use thereof” (NEUSCO BIOTECH LIMITED, priority 2020, dated 2026).
# Key:
# [1] = molecular target: T1, Lp-PLA2 enzyme in human plasma (Homo sapiens, UniProt Q13093); assay: Human plasma Lp-PLA2 assay (Thio-PAF assay); assay type: biochemical; conditions: mixed human plasma, 2-thio-PAF substrate, CPM, 30-min pre-incubation, fluorescence ex 380/em 485; for IC50: read-out: Thio-PAF (pIC50) (converted)
# T1 construct: from tissue; host or cells: mixed (pooled) human plasma
# T1 sequence (Q13093 22-441): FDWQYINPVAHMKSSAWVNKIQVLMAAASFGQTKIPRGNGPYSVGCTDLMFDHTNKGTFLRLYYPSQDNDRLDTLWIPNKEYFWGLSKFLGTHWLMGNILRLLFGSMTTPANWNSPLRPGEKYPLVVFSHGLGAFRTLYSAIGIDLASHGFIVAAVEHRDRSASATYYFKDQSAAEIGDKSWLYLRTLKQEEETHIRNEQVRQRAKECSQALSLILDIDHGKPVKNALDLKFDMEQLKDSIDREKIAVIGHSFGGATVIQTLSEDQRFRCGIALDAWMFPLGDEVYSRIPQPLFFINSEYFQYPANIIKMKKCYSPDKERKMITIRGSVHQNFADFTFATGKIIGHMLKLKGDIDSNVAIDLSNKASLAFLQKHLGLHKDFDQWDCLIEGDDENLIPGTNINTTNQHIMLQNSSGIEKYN
# Method: (2) Human Plasma Lp-PLA2 Assay (Also Known as Thio-PAF Assay) The human plasma assay was conducted using the […] analog of PAF (phosphatidylcholine). After hydrolysis, it would generate phospholipids containing free sulfhydryl groups, which would be subjected to Michael addition with CPM to generate fluorescence-enhancing maleimide. Continuous quantitative analysis of thiol could be conducted by detecting the fluorescence intensity. This assay can be used to detect the inhibitory activity of the Lp-PLA2 inhibitor on the Lp-PLA2 enzyme in human plasma. […] The plate was centrifuged at 500 rpm for 10 seconds. […] Two minutes later, the reaction was quenched with 5 μl of 5% trifluoroacetic acid.
# [2] = molecular target: T2, recombinant human Lp-PLA2 enzyme (Homo sapiens, UniProt Q13093); assay: Recombinant human Lp-PLA2 (rhLp-PLA2) assay (PED6 assay); assay type: biochemical; conditions: PED6 substrate, enzyme 4 nM or 110 pM, 30-min pre-incubation, fluorescence ex 480/em 540; for IC50: read-out: rhLp-PLA2 (pIC50) (converted)
# T2 sequence (Q13093 22-441): T1 sequence (Q13093 22-441)
# Method: (1) Recombinant Human Lp-PLA2 (rhLp-PLA2) Assay (Also Known as PED6 Assay) PED6 is a fluorescently labeled phospholipid, which could be purchased directly from Invitogene or Molecular Probes. PED6 has a fluorescence quenching […] and a Bodipy fluorescein (FL) group at the sn2 position. Once cleaved by an Lp-PLA2 enzyme, it will release the FL group, resulting in enhanced fluorescence. […] The plate was centrifuged at 500 rpm for 10 seconds.
Structure (SMILES),IC50 [1] [nM],IC50 [2] [nM],rhLp-PLA2 (pIC50) [2],Thio-PAF (pIC50) [1]
O=c1nc(OCc2ccc(F)cc2F)cc2n1CC1CCCN2C1 (stereo not shown) [Compound 2],31.6,2.51,,
O=c1nc(OCc2cc(F)c(F)cc2F)cc2n1CC1CCCN2C1 (stereo not shown) [Compound 3],316,31.6,,
O=c1nc(OCc2cc(F)cc(F)c2)cc2n1CC1CCCN2C1 (stereo not shown) [Compound 4],39.8,3.16,,
O=c1nc(OCc2cc(F)c(Oc3cccc(C(F)(F)F)c3)c(F)c2)cc2n1CC1CCCN2C1 (stereo not shown) [Compound 10],10,0.126,,
O=c1nc(OCc2cc(F)c(Oc3cccc(OC(F)(F)F)c3)c(F)c2)cc2n1CC1CCCN2C1 (stereo not shown) [Compound 12],15.8,0.316,,
O=c1nc(OCc2cc(F)c(Oc3ccc(Cl)c(C(F)(F)F)c3)c(F)c2)cc2n1CC1CCCN2C1 (stereo not shown) [Compound 14],6.31,0.0398,,
O=c1nc(OCc2cc(F)c(Oc3ccc(OC(F)(F)F)c(Cl)c3)c(F)c2)cc2n1CC1CCCN2C1 (stereo not shown) [Compound 15],12.6,0.2,,
O=c1nc(OCc2cc(F)c(Oc3ccc(C(F)(F)F)c(Cl)c3)c(F)c2)cc2n1CC1CCCN2C1 (stereo not shown) [Compound 16],7.94,0.0794,,
O=c1nc(OCc2cc(F)c(Oc3cccc(C(F)(F)F)c3)c(F)c2)cc2n1C[C@H]1CCCN2C1 [Compound 20],3.16,0.0316,,
O=c1nc(OCc2cc(F)cc(F)c2)cc2n1C[C@H]1CCCN2C1 [Compound 21],39.8,3.16,,
O=c1nc(OCc2cc(F)c(F)cc2F)cc2n1C[C@H]1CCCN2C1 [Compound 22],316,31.6,,
O=c1nc(OCc2cc(F)c(Oc3cccc(C(F)(F)F)c3)c(F)c2)cc2n1C[C@@H]1CCCN2C1 [Compound 26],3.98,0.0398,,
O=c1nc(OCc2cc(F)cc(F)c2)cc2n1C[C@H]1CCCN2C1 [Compound 27],50.1,,8.5,
O=c1nc(OCc2cc(F)c(F)cc2F)cc2n1C[C@H]1CCCN2C1 [Compound 28],,39.8,,6.5
O=c1nc(OCc2cc(F)c(F)cc2F)cc2n1C[C@@H]1CN2CCO1 [Compound 34],501,63.1,,

# The next lines start with the values.
IC50 [1] [nM],IC50 [2] [nM],rhLp-PLA2 (pIC50) [2],Thio-PAF (pIC50) [1],Structure (SMILES)
3.16,0.0316,,,O=c1nc(OCc2cc(F)c(Oc3ccnc(C(F)(F)F)c3)c(F)c2)cc2n1CC1CCCN2C1 (stereo not shown) [Compound 5]
6.31,0.0631,,,Cc1cc(Oc2c(F)cc(COc3cc4n(c(=O)n3)CC3CCCN4C3)cc2F)ccn1 (stereo not shown) [Compound 6]
7.94,0.0794,,,Cc1ccc(Oc2c(F)cc(COc3cc4n(c(=O)n3)CC3CCCN4C3)cc2F)cn1 (stereo not shown) [Compound 7]
15.8,0.316,,,Cc1ncc(Oc2c(F)cc(COc3cc4n(c(=O)n3)CC3CCCN4C3)cc2F)cn1 (stereo not shown) [Compound 8]
10,0.1,,,O=c1nc(OCc2cc(F)c(Oc3cnc(C(F)(F)F)nc3)c(F)c2)cc2n1CC1CCCN2C1 (stereo not shown) [Compound 9]
7.94,0.0794,,,Cc1cc(Oc2c(F)cc(COc3cc4n(c(=O)n3)CC3CCCN4C3)cc2F)ccc1Cl (stereo not shown) [Compound 11]
7.94,0.0631,,,O=c1nc(OCc2cc(F)c(Oc3ccc(C(F)(F)F)cc3)c(F)c2)cc2n1CC1CCCN2C1 (stereo not shown) [Compound 13]
7.94,0.0794,,,Cc1ccc(Oc2c(F)cc(COc3cc4n(c(=O)n3)C[C@H]3CCCN4C3)cc2F)cn1 [Compound 18]
7.94,0.1,,,Cc1ccc(Oc2c(F)cc(COc3cc4n(c(=O)n3)C[C@@H]3CCCN4C3)cc2F)cn1 [Compound 24]
10,0.158,,,Cc1ccc(Oc2c(F)cc(COc3cc4n(c(=O)n3)C[C@@H]3CN4CCO3)cc2F)cn1 [Compound 30]
79.4,3.98,,,O=c1nc(OCc2cc(F)cc(F)c2)cc2n1C[C@@H]1CN2CCO1 [Compound 33]
12.6,0.126,,,Cc1ccc(Oc2c(F)cc(COc3cc4n(c(=O)n3)C[C@H]3CN4CCO3)cc2F)cn1 [Compound 36]
100,,8.4,,O=c1nc(OCc2cc(F)cc(F)c2)cc2n1C[C@@H]1CN2CCO1 [Compound 39]
,50.1,,6.3,O=c1nc(OCc2cc(F)c(F)cc2F)cc2n1C[C@@H]1CN2CCO1 [Compound 40]
